Data taken from ChEMBL document CHEMBL1201862, “PubChem BioAssay data set” (2004).
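Compound exposure: 48 hours, 5 concentrations, 96-well plates. GI50 marks 50% less growth.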 Calls of active or inactive are those of the source. Cut-off read from the data, not from the text of the source: active = GI50 up to about 1.1 µM and inactive = higher.

Assays:
Experiment in all cases: NCI anticancer screen, dose series, 48 h
SNB-19 = test system: SNB-19
HCT-15 = test system: HCT-15
SK-MEL-5 = test system: SK-MEL-5
SK-OV-3 = test system: SK-OV-3
SF-268 = test system: SF-268
786-0 = test system: 786-0
COLO 205 = test system: COLO 205
NCI-H23 = test system: NCI-H23
MDA-MB-231 = test system: MDA-MB-231
SW-620 = test system: SW-620
SK-MEL-2 = test system: SK-MEL-2
RPMI-8226 = test system: RPMI-8226
NCI-H226 = test system: NCI-H226
UACC-62 = test system: UACC-62
NCI-H522 = test system: NCI-H522
EKVX = test system: EKVX
Hs-578T = test system: Hs-578T
MDA-MB-435 = test system: MDA-MB-435
OVCAR-8 = test system: OVCAR-8
HCT-116 = test system: HCT-116

Structure (SMILES)	GI50 (SNB-19)	GI50 (HCT-15)	GI50 (SK-MEL-5)	GI50 (SK-OV-3)	GI50 (SF-268)	GI50 (786-0)	GI50 (COLO 205)	GI50 (NCI-H23)	GI50 (MDA-MB-231)	GI50 (SW-620)	GI50 (SK-MEL-2)	GI50 (RPMI-8226)	GI50 (NCI-H226)	GI50 (UACC-62)	GI50 (NCI-H522)	GI50 (EKVX)	GI50 (Hs-578T)	GI50 (MDA-MB-435)	GI50 (OVCAR-8)	GI50 (HCT-116)
COC(=O)C1C(=O)N(C)C(=O)N2CCCC12 (stereo unspecified)	> 100 µM (inactive)	> 100 µM	> 100 µM (inactive)	> 100 µM (inactive)	> 100 µM (inactive)	> 100 µM (inactive)	> 100 µM (inactive)	> 100 µM (inactive)	> 100 µM (inactive)	> 100 µM (inactive)	> 100 µM (inactive)	> 100 µM (inactive)	> 100 µM (inactive)	> 100 µM (inactive)	> 100 µM (inactive)	> 100 µM (inactive)	> 100 µM (inactive)	> 100 µM (inactive)	> 100 µM (inactive)	–
CCOC(=O)OC1C(Br)C2CCC1(C)C2(C)C (stereo unspecified)	14.6 µM (inactive)	13.7 µM	14.5 µM (inactive)	15.7 µM (inactive)	13.7 µM (inactive)	14.1 µM (inactive)	13 µM (inactive)	17.2 µM (inactive)	11.9 µM (inactive)	16.1 µM (inactive)	–	5.46 µM (inactive)	12 µM (inactive)	17.7 µM (inactive)	15.2 µM (inactive)	15.5 µM (inactive)	13.8 µM (inactive)	11.4 µM (inactive)	16 µM (inactive)	6.44 µM (inactive)
CCCCCCCCCCCCCCCCCCNc1ccn(C2OC(COP(=O)(O)OCCCCCCCCCCCCCCCC)C(O)C2O)c(=O)n1 (stereo unspecified)	> 100 µM (inactive)	> 100 µM	–	> 100 µM (inactive)	> 100 µM (inactive)	> 100 µM (inactive)	> 100 µM (inactive)	> 100 µM (inactive)	> 100 µM (inactive)	> 100 µM (inactive)	> 100 µM (inactive)	> 100 µM (inactive)	> 100 µM (inactive)	> 100 µM (inactive)	51.3 µM (inactive)	> 100 µM (inactive)	83.8 µM (inactive)	> 100 µM (inactive)	> 100 µM (inactive)	> 100 µM (inactive)
CS(=O)(=O)N1CC(CCl)c2ccc(NCCN)cc21 (stereo unspecified)	39 µM (inactive)	> 100 µM	> 100 µM (inactive)	22.1 µM (inactive)	39.1 µM (inactive)	18.7 µM (inactive)	> 100 µM (inactive)	53.7 µM (inactive)	33.3 µM (inactive)	> 100 µM (inactive)	> 100 µM (inactive)	> 100 µM (inactive)	> 100 µM (inactive)	–	23.7 µM (inactive)	47.9 µM (inactive)	27.2 µM (inactive)	> 100 µM (inactive)	57.5 µM (inactive)	83.2 µM (inactive)
CCCNC(=O)c1cc(OC)c(OC)cc1NC(=O)C12CC3CC(CC(C3)C1)C2	16.4 µM (inactive)	17 µM	40 µM (inactive)	–	17.6 µM (inactive)	17 µM (inactive)	24.3 µM (inactive)	16.8 µM (inactive)	16.9 µM (inactive)	> 100 µM (inactive)	15.5 µM (inactive)	32.4 µM (inactive)	25.2 µM (inactive)	–	12.3 µM (inactive)	18.2 µM (inactive)	19.8 µM (inactive)	17.9 µM (inactive)	23.7 µM (inactive)	16.8 µM (inactive)
COc1ccc2c(-c3csc(-c4c[nH]c5ccc(Br)cc45)n3)c[nH]c2c1	> 100 µM (inactive)	7.53 µM	> 100 µM (inactive)	–	25.9 µM (inactive)	27.4 µM (inactive)	54.1 µM (inactive)	64.9 µM (inactive)	13.9 µM (inactive)	> 100 µM (inactive)	19.1 µM (inactive)	27.1 µM (inactive)	45.4 µM (inactive)	> 100 µM (inactive)	23.1 µM (inactive)	32.1 µM (inactive)	74.1 µM (inactive)	7.69 µM (inactive)	> 100 µM (inactive)	31.3 µM (inactive)
O=C(Nc1nc(C23CC4CC(CC(C4)C2)C3)cs1)c1cc2ccccc2oc1=O	> 100 µM (inactive)	> 100 µM	> 100 µM (inactive)	–	> 100 µM (inactive)	> 100 µM (inactive)	> 100 µM (inactive)	> 100 µM (inactive)	> 100 µM (inactive)	> 100 µM (inactive)	–	> 100 µM (inactive)	> 100 µM (inactive)	–	> 100 µM (inactive)	> 100 µM (inactive)	> 100 µM (inactive)	> 100 µM (inactive)	> 100 µM (inactive)	> 100 µM (inactive)
NC(=O)/C=C/NC(=O)/C=N\O	> 100 µM (inactive)	> 100 µM	> 100 µM (inactive)	> 100 µM (inactive)	> 100 µM (inactive)	> 100 µM (inactive)	> 100 µM (inactive)	–	> 100 µM (inactive)	> 100 µM (inactive)	–	> 100 µM (inactive)	> 100 µM (inactive)	> 100 µM (inactive)	> 100 µM (inactive)	> 100 µM (inactive)	> 100 µM (inactive)	> 100 µM (inactive)	> 100 µM (inactive)	> 100 µM (inactive)
COC(=O)C[C@H]1[C@]2(C)C3=C(C)[C@H](c4ccoc4)CC3O[C@@H]2[C@@H]2OC(=O)[C@]3(C)CCC(=O)[C@@]1(C)[C@@H]23 (stereo partly specified)	–	38.8 µM	56.6 µM (inactive)	> 100 µM (inactive)	48 µM (inactive)	32.3 µM (inactive)	62.8 µM (inactive)	46.5 µM (inactive)	> 100 µM (inactive)	50.6 µM (inactive)	> 100 µM (inactive)	19.1 µM (inactive)	–	49.2 µM (inactive)	14.5 µM (inactive)	–	36.1 µM (inactive)	37.2 µM (inactive)	44.8 µM (inactive)	35.4 µM (inactive)
CN(C)c1cccc2c1C(=O)C=CC21c2ccc(N(C)C)c3c(N(C)C)ccc(c23)C(c2ccccc2)C1c1ccccc1 (stereo unspecified)	16.3 µM (inactive)	27.3 µM	14.2 µM (inactive)	11.4 µM (inactive)	12.9 µM (inactive)	9.44 µM (inactive)	11.3 µM (inactive)	24.7 µM (inactive)	8.75 µM (inactive)	19.8 µM (inactive)	–	15.9 µM (inactive)	12.7 µM (inactive)	20.1 µM (inactive)	21.3 µM (inactive)	22.2 µM (inactive)	10 µM (inactive)	15 µM (inactive)	13.5 µM (inactive)	21.3 µM (inactive)
CCCCCCCCCCCC[C@H](O)[C@H]1CC[C@H]([C@H](O)CCCC[C@H](O)CCCCC[C@@H](O)CC2=C[C@H](C)OC2=O)O1	1.13 µM (inactive)	5.56 µM	1.75 µM (inactive)	–	3.33 µM (inactive)	5.01 µM (inactive)	4.21 µM (inactive)	0.00415 µM (active)	1.88 µM (inactive)	2.75 µM (inactive)	3.05 µM (inactive)	> 10 µM (inactive)	2.84 µM (inactive)	1.19 µM (inactive)	5.21 µM (inactive)	1.6 µM (inactive)	5.43 µM (inactive)	1.4 µM (inactive)	2.26 µM (inactive)	1.76 µM (inactive)
O=C1C(NCCc2ccc(O)c([N+](=O)[O-])c2)=CC(=O)c2[nH]cnc21	89.5 µM (inactive)	39.7 µM	16.2 µM (inactive)	–	–	47.2 µM (inactive)	43.8 µM (inactive)	17.1 µM (inactive)	22.7 µM (inactive)	44.6 µM (inactive)	16 µM (inactive)	32.7 µM (inactive)	–	20.8 µM (inactive)	18.6 µM (inactive)	27.4 µM (inactive)	83.9 µM (inactive)	18.6 µM (inactive)	25 µM (inactive)	24.7 µM (inactive)
COc1cc(C[C@@H](C)N)cc(OC)c1	> 100 µM (inactive)	> 100 µM	> 100 µM (inactive)	> 100 µM (inactive)	> 100 µM (inactive)	> 100 µM (inactive)	> 100 µM (inactive)	> 100 µM (inactive)	> 100 µM (inactive)	> 100 µM (inactive)	> 100 µM (inactive)	> 100 µM (inactive)	> 100 µM (inactive)	> 100 µM (inactive)	> 100 µM (inactive)	–	> 100 µM (inactive)	> 100 µM (inactive)	> 100 µM (inactive)	> 100 µM (inactive)
Cc1nc(=O)c2cc(CN(C)c3ccc(C(=O)N[C@@H](CCC(=O)O)C(=O)O)s3)ccc2[nH]1 [RALTITREXED]	> 100 µM (inactive)	> 100 µM	–	> 100 µM (inactive)	12.8 µM (inactive)	0.0438 µM (active)	> 100 µM (inactive)	–	> 100 µM (inactive)	> 100 µM (inactive)	> 100 µM (inactive)	0.0834 µM (active)	> 100 µM (inactive)	0.193 µM (active)	> 100 µM (inactive)	> 100 µM (inactive)	> 100 µM (inactive)	> 100 µM (inactive)	0.0883 µM (active)	0.264 µM (active)
Cc1c([C@H](C)[C@@H]2NC[C@@H](C)C[C@H]2O)ccc2c1C[C@H]1[C@H]2CC=C2C[C@@H](O)CC[C@@]21C [VERATRAMINE]	27.8 µM (inactive)	20.2 µM	10.8 µM (inactive)	23.8 µM (inactive)	27.7 µM (inactive)	17 µM (inactive)	14.4 µM (inactive)	11.7 µM (inactive)	16.4 µM (inactive)	28.6 µM (inactive)	–	3.29 µM (inactive)	11.9 µM (inactive)	13 µM (inactive)	13 µM (inactive)	2.34 µM (inactive)	20.6 µM (inactive)	12.9 µM (inactive)	21.9 µM (inactive)	14.3 µM (inactive)
